Results as given in ChEMBL document CHEMBL1201862, “PubChem BioAssay data set” (2004).
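In this assay, cells in 96-well plates receive the compound at five concentrations for 48 hours. Endpoints are linearly interpolated between the surrounding concentrations. At the GI50, growth is halved.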 The source made the active and inactive calls. Cut-off read from the data, not from the text of the source: active = GI50 up to about 1.1 µM and inactive = higher.

What was measured:
Experiment in all cases: NCI-60 cell line screen, 48 h
SK-MEL-2 = test system: SK-MEL-2
RXF 393 = test system: RXF 393
COLO 205 = test system: COLO 205
LOX IMVI = test system: LOX IMVI
KM12 = test system: KM12
SK-OV-3 = test system: SK-OV-3
MDA-MB-231 = test system: MDA-MB-231
SK-MEL-28 = test system: SK-MEL-28
CCRF-CEM = test system: CCRF-CEM
MDA-N = test system: MDA-N
SW-620 = test system: SW-620
RPMI-8226 = test system: RPMI-8226
OVCAR-8 = test system: OVCAR-8
DU-145 = test system: DU-145
HOP-62 = test system: HOP-62
T47D = test system: T47D
HCC 2998 = test system: HCC 2998
SNB-19 = test system: SNB-19
OVCAR-5 = test system: OVCAR-5
MOLT-4 = test system: MOLT-4

Measured: GI50

O=c1c2cc(I)ccc2nc(SCc2nncs2)n1Cc1ccccc1
inactive: SK-MEL-2 16.1 µM | RXF 393 13.6 µM | COLO 205 20.2 µM | LOX IMVI 29.5 µM | KM12 11.8 µM | SK-OV-3 43.7 µM | MDA-MB-231 16.8 µM | SK-MEL-28 90.2 µM | CCRF-CEM 5.71 µM | MDA-N 23 µM | SW-620 > 100 µM | RPMI-8226 6.76 µM | OVCAR-8 36.5 µM | DU-145 23.1 µM | HOP-62 20.3 µM | T47D 8.93 µM | HCC 2998 16.4 µM | SNB-19 19.5 µM | OVCAR-5 99.5 µM | MOLT-4 8.3 µM

CC[C@@H]1CN2CCC1C[C@@H]2C(O)c1ccnc2ccc(OCCN3CCN(CCOc4ccc5nccc(C(O)[C@@H]6C[C@@H]7CCN6C[C@@H]7CC)c5c4)CC3)cc12 (some centres not stated)
inactive: SK-MEL-2 19.9 µM | RXF 393 16.5 µM | COLO 205 14.7 µM | LOX IMVI 14.8 µM | KM12 16.1 µM | SK-OV-3 18.3 µM | MDA-MB-231 15.9 µM | SK-MEL-28 17.1 µM | CCRF-CEM 4.45 µM | MDA-N 12.9 µM | SW-620 21.8 µM | RPMI-8226 2.59 µM | OVCAR-8 19.3 µM | DU-145 17.5 µM | HOP-62 18.5 µM | T47D 19.7 µM | HCC 2998 9.48 µM | SNB-19 14.5 µM | OVCAR-5 18.6 µM | MOLT-4 6.53 µM

CC(C)=CCC[C@@H](C)C1=C(O)C(=O)C(C)=C(Nc2ccccc2Br)C1=O
inactive: SK-MEL-2 13.3 µM | RXF 393 14.3 µM | COLO 205 15.9 µM | LOX IMVI 11.9 µM | KM12 12.5 µM | SK-OV-3 17.5 µM | MDA-MB-231 20.7 µM | SK-MEL-28 14.4 µM | CCRF-CEM 3.84 µM | MDA-N 14.1 µM | SW-620 17.3 µM | RPMI-8226 8.24 µM | OVCAR-8 7.57 µM | DU-145 14.4 µM | HOP-62 12.4 µM | T47D 13.8 µM | HCC 2998 30.4 µM | SNB-19 16.4 µM | OVCAR-5 20.3 µM | MOLT-4 4.09 µM

O=C(N/N=C(\c1ccccc1)c1ccccn1)NC1CCCCC1
inactive: SK-MEL-2 82.4 µM | COLO 205 65 µM | LOX IMVI 19.4 µM | KM12 59.3 µM | SK-OV-3 45.5 µM | MDA-MB-231 27.7 µM | SK-MEL-28 > 100 µM | CCRF-CEM 40.8 µM | MDA-N > 100 µM | SW-620 76 µM | RPMI-8226 48.1 µM | DU-145 64.6 µM | HOP-62 23.4 µM | T47D 28.6 µM | HCC 2998 56.4 µM | SNB-19 > 100 µM | OVCAR-5 > 100 µM | MOLT-4 41.1 µM

CCOC(=O)c1cc2c(OC)cc(OC)cc2oc1=O
inactive: SK-MEL-2 > 100 µM | RXF 393 57.3 µM | COLO 205 > 100 µM | LOX IMVI 5.58 µM | MDA-MB-231 35.9 µM | SK-MEL-28 > 100 µM | CCRF-CEM > 100 µM | MDA-N > 100 µM | SW-620 > 100 µM | RPMI-8226 > 100 µM | OVCAR-8 > 100 µM | DU-145 > 100 µM | HOP-62 65.3 µM | T47D > 100 µM | HCC 2998 > 100 µM | SNB-19 41.8 µM | OVCAR-5 > 100 µM | MOLT-4 > 100 µM

Cc1cccc2c(=O)c3cccc([C@H](C)C(=O)O)c3oc12
inactive: SK-MEL-2 > 100 µM | COLO 205 > 100 µM | LOX IMVI > 100 µM | KM12 > 100 µM | SK-OV-3 > 100 µM | MDA-MB-231 > 100 µM | SK-MEL-28 > 100 µM | CCRF-CEM > 100 µM | MDA-N > 100 µM | SW-620 > 100 µM | RPMI-8226 > 100 µM | OVCAR-8 > 100 µM | DU-145 > 100 µM | HOP-62 > 100 µM | T47D > 100 µM | HCC 2998 > 100 µM | SNB-19 > 100 µM | MOLT-4 > 100 µM

CCOC(=O)COc1ccc(/C=C/C(=O)c2ccc(OC)cc2)cc1
inactive: SK-MEL-2 27.7 µM | RXF 393 18.1 µM | COLO 205 35.4 µM | LOX IMVI 16.3 µM | KM12 28.4 µM | MDA-MB-231 37.6 µM | SK-MEL-28 19.3 µM | CCRF-CEM 20.9 µM | MDA-N 26.7 µM | SW-620 20.7 µM | RPMI-8226 39.3 µM | OVCAR-8 24.5 µM | DU-145 29.9 µM | HOP-62 20.8 µM | T47D 39.7 µM | HCC 2998 23.7 µM | SNB-19 41.8 µM | OVCAR-5 37.4 µM | MOLT-4 42.9 µM

COc1ccc(/C=C2\N=C(c3ccccc3)N(C3Nc4cc5c(cc4S3)NC(N3C(=O)/C(=C/c4ccc(OC)cc4)N=C3c3ccccc3)S5)C2=O)cc1 (configuration not stated)
inactive: SK-MEL-2 31.6 µM | RXF 393 > 100 µM | LOX IMVI 37.3 µM | KM12 54.6 µM | MDA-MB-231 > 100 µM | SK-MEL-28 > 100 µM | MDA-N 37.9 µM | SW-620 61.5 µM | RPMI-8226 29.5 µM | OVCAR-8 27.1 µM | DU-145 50.5 µM | HOP-62 41.2 µM | T47D 65.3 µM | HCC 2998 30.1 µM | OVCAR-5 > 100 µM | MOLT-4 23.6 µM

COC(=O)C1CCC(=S)N1C(=O)OCc1ccccc1 (configuration not stated)
inactive: SK-MEL-2 > 100 µM | RXF 393 28.4 µM | COLO 205 > 100 µM | KM12 > 100 µM | SK-OV-3 > 100 µM | MDA-MB-231 > 100 µM | SK-MEL-28 > 100 µM | CCRF-CEM 3.61 µM | MDA-N > 100 µM | SW-620 83.2 µM | RPMI-8226 > 100 µM | OVCAR-8 > 100 µM | DU-145 > 100 µM | HOP-62 > 100 µM | T47D > 100 µM | HCC 2998 62.1 µM | SNB-19 > 100 µM | OVCAR-5 > 100 µM | MOLT-4 > 100 µM

c1ccc(C2=Nc3cccc4cccc(c34)N2)cc1
inactive: SK-MEL-2 > 46.3 µM | RXF 393 22 µM | COLO 205 18.6 µM | LOX IMVI 23.5 µM | KM12 28.3 µM | SK-OV-3 > 100 µM | MDA-MB-231 19.7 µM | SK-MEL-28 > 79.1 µM | CCRF-CEM 3.82 µM | MDA-N 45.3 µM | SW-620 20.4 µM | RPMI-8226 22.6 µM | OVCAR-8 35.5 µM | DU-145 > 90.2 µM | HOP-62 > 100 µM | T47D 4.63 µM | HCC 2998 43.9 µM | SNB-19 > 100 µM | OVCAR-5 69.5 µM

N#Cc1c(-c2nc3ccccc3s2)c(=O)oc2cc(O)ccc12
inactive: SK-MEL-2 49.7 µM | RXF 393 43.6 µM | COLO 205 13.3 µM | LOX IMVI 28.6 µM | KM12 22.3 µM | MDA-MB-231 22.9 µM | SK-MEL-28 41.1 µM | CCRF-CEM 25.4 µM | MDA-N 33.1 µM | SW-620 30.8 µM | RPMI-8226 13.1 µM | OVCAR-8 32.1 µM | DU-145 22.6 µM | HOP-62 16.7 µM | T47D 17.7 µM | HCC 2998 30.3 µM | SNB-19 46 µM | OVCAR-5 52 µM | MOLT-4 28 µM

C[C@]12CC[C@H]3[C@@H](CCC4=CC(=O)C=C[C@@]43O)[C@@H]1CCC2=O
inactive: SK-MEL-2 77.4 µM | RXF 393 > 100 µM | COLO 205 > 100 µM | LOX IMVI 33.6 µM | KM12 > 100 µM | MDA-MB-231 > 100 µM | SK-MEL-28 > 100 µM | CCRF-CEM 26.4 µM | MDA-N > 100 µM | SW-620 > 100 µM | RPMI-8226 > 100 µM | OVCAR-8 81.1 µM | DU-145 > 100 µM | HOP-62 > 100 µM | T47D > 100 µM | HCC 2998 > 100 µM | SNB-19 > 100 µM | OVCAR-5 > 100 µM | MOLT-4 27.2 µM

CCC(C#N)N(Cc1cccc(CN(C(C)=O)C(C#N)CC)c1)C(C)=O (configuration not stated)
inactive: SK-MEL-2 > 100 µM | RXF 393 > 100 µM | COLO 205 > 100 µM | LOX IMVI > 100 µM | KM12 > 100 µM | SK-OV-3 > 100 µM | MDA-MB-231 46.6 µM | CCRF-CEM > 100 µM | MDA-N > 100 µM | SW-620 > 100 µM | RPMI-8226 > 100 µM | OVCAR-8 > 100 µM | DU-145 > 100 µM | HOP-62 > 100 µM | T47D 7.24 µM | HCC 2998 97.1 µM | SNB-19 > 100 µM | OVCAR-5 > 100 µM | MOLT-4 5.52 µM

COc1cc2ccc1OCc1cccc(n1)COc1ccc(cc1OC)/C=N\CCNCCNCC/N=C\2
inactive: SK-MEL-2 > 100 µM | RXF 393 > 100 µM | COLO 205 > 100 µM | LOX IMVI > 100 µM | KM12 > 100 µM | SK-OV-3 > 100 µM | MDA-MB-231 > 100 µM | CCRF-CEM > 100 µM | MDA-N > 100 µM | SW-620 > 100 µM | OVCAR-8 > 100 µM | DU-145 > 100 µM | HOP-62 > 100 µM | T47D > 100 µM | HCC 2998 > 100 µM | SNB-19 > 100 µM | OVCAR-5 > 100 µM | MOLT-4 46.5 µM
